# According to patent US20240277745A1, “PEMAFIBRATE AND/OR TOFOGLIFLOZIN FOR USE IN TREATING LIVER DISEASE” (KOWA COMPANY, LTD, priority 2021, published 2024):
# Experiments:
# [1] = test system: patients with biopsy-confirmed NAFLD and type 2 diabetes; test: Example 3 clinical trial: liver histology (biopsy) at 48 weeks; assay type: in vivo, human; conditions: for histologic improvement from baseline to 48 weeks (in words): once-daily treatment
# Description: (§1) 1. The biopsy consistent with the diagnosis of NAFLD 2. Type 2 diabetes, HbA1c>=7.0% • Hepatic virus infections, autoimmune hepatitis, primary biliary cirrhosis, sclerosing cholangitis, haemochromatosis, antitrypsin deficiency, Wilsons disease, history of parenteral nutrition and use of drugs known to induce steatosis or hepatic injury caused by substance abuse and or the current or past consumption of more than 20 g of alcohol daily • Hypersensitivity to or contraindication of glimepiride and tofogliflozin • None type 2 diabetes • Poorly controlled diabetes • Repeated episodes of unexplained hypoglycemia • Concomitant infection or planned surgery • Poorly controlled hypertension • Severe retinopathy • Malignancy on an active therapeutic regimen or malignancy without complete remission or cure • Severe health problems not suitable for the study • Pregnant or lactating women • Inability to participate in the study as assessed by the investigators. A total of 40 patients were randomly assigned to receive once-daily tofogliflozin at a dose of 20 mg (20 patients) or to receive once-daily glimepiride (20 patients). All 40 patients (100%) completed the trial. Demographic and baseline clinical characteristics except for gender were similar in both groups. The patients were all Japanese and type 2 diabetes. The mean age was 53.9 years, the mean body weight 82.0 kg, the mean Hemoglobin A1c 8.2%, and the mean NAS 4.45. A total of 18 patients (45%) had stage F1 fibrosis, 11 (27.5%) had stage F2, and 5 (12.5%) had stage F3. A total of 40 patients were randomly assigned to receive once-daily tofogliflozin at a dose of 20 mg (20 patients) or to receive once-daily glimepiride (20 patients). All 40 patients (100%) completed the trial. Information for the primary and confirmatory secondary outcomes related to a biopsy at week 48 was available for 39 patients (97.5%). For only one patient with a serious adverse event (2.5%).
# adults with NAFLD [2] = test: Example 1 clinical study: liver function (ALT, AST); assay type: in vivo, human; conditions: for ALT, percent change from baseline / AST, percent change from baseline: pemafibrate 0.4 mg/day BID; for ALT, mean difference / AST, mean difference: pemafibrate vs placebo
# Procedure: (§2) This was a placebo-controlled, randomized, double-blind, parallel-group, study in adults with NAFLD. Subjects were administered pemafibrate tablets (0.4 mg/day, BID) or placebo tablets for 72 weeks following a screening period of from 2 to 8 weeks. The primary endpoint was percent change from baseline in liver fat content, measured by MRI-PDFF at week 24. The key secondary endpoints were percent changes in liver stiffness and ALT levels from baseline to week 72 and 24, respectively. The study was conducted in compliance with relevant guidelines, GCP guidance, and the Declaration of Helsinki.
# (§3) Patients with a hepatic fat fraction ≥10% on MRI-PDFF, liver stiffness (measured using magnetic resonance elastography, MRE)≥2.5 kPa and elevated ALT (>40 U/L for men, >30 U/L for women) were enrolled. Patients were excluded in case of body mass index (BMI)<22 kg/m^2, uncontrolled diabetes (HbA1c≥8%), impaired renal function (estimated glomerular filtration rate, eGFR, <30 mL·min^−1·1.73^−1·m^−2 or on dialysis), cirrhosis, biliary obstruction, or chronic liver diseases other than NAFLD.
# (§4) Subjects took their assigned medication (pemafibrate 0.2 mg tablet or placebo) orally, one tablet, twice daily, for 72 weeks. Study visits were set every 4 weeks from the start of treatment to week 24 and every 8 weeks from week 24 onwards. Liver fat content and liver stiffness were measured at screening examinations that took place pre-randomization and subsequently at weeks 0, 24, 48, and 72.
# (§5) The primary efficacy endpoint was percent change in hepatic fat content, as measured using MRI-PDFF. Liver stiffness measured using MRE was a secondary endpoint and similarly assessed percent change from baseline values. Other efficacy endpoints included liver function, fibrosis and inflammatory markers, and lipid markers.
# adults with NAFLD [3] = test: Example 1 clinical study: lipids; assay type: in vivo, human; conditions: for HDL cholesterol, percent change from baseline / LDL cholesterol, percent change from baseline / Non-HDL cholesterol, percent change from baseline / Total cholesterol, percent change from baseline / Triglycerides, percent change from baseline: pemafibrate 0.4 mg/day BID; for HDL cholesterol, mean difference / LDL cholesterol, mean difference / Non-HDL cholesterol, mean difference / Total cholesterol, mean difference / Triglycerides, mean difference: pemafibrate vs placebo
# Procedure: as §2, §3, §4, §5
# adults with NAFLD [4] = test: Example 1 clinical study: liver stiffness by MRE; assay type: in vivo, human; conditions: for Liver stiffness by MRE, Responder / Liver stiffness by MRE, percent change from baseline: pemafibrate 0.4 mg/day BID; for Liver stiffness by MRE, mean difference: pemafibrate vs placebo
# Procedure: as §2, §3, §4
# (§6) All imaging assessment procedures were performed blinded. The equipment used in all facilities was standardized to a 3.0 T MR Imaging System (GE Healthcare, Little Chalfont, UK). As an application, IDEAL-IQ for MRI-PDFF and MR-touch for MRE were used. Detailed imaging conditions are described in the “Imaging Procedure Manual” and imaging procedures were standardized throughout all tests. Imaging was performed during fasting (≥4 h postprandial) and the timing of testing (pre-breakfast/post-breakfast to pre-lunch/post-lunch) was unified for each patient throughout the study.
# as §5
# adults with NAFLD [5] = test: Example 1 clinical study: liver fat content by MRI-PDFF; assay type: in vivo, human; conditions: for Liver fat content by MRI-PDFF, Responder / Liver fat content by MRI-PDFF, percent change from baseline: pemafibrate 0.4 mg/day BID; for Liver fat content by MRI-PDFF, mean difference: pemafibrate vs placebo
# Procedure: as §2, §3, §4, §6, §5
# [6] = test system: LDL receptor knockout mice and KK-A mice fed with an MCD (methionine-choline-deficient) diet; conditions: cited from earlier work
# [7] = reported by Ishibashi 2016; cited from earlier work
# [8] = test system: patients with biopsy-confirmed NAFLD and type 2 diabetes; test: Example 3 clinical trial: metabolic parameters; assay type: in vivo, human
# Description: as §1
# [9] = test system: patients with biopsy-confirmed NAFLD and type 2 diabetes; test: Example 3 clinical trial: serum enzyme levels and liver test; assay type: in vivo, human
# Description: as §1
# [10] = week 48, P<0.001 for the comparison with glimepiride
# [11] = baseline to 48 weeks, tofogliflozin 20 mg once daily
molecule,measurement,setting,value
CCC1=C(C)CN(C(=O)NCCc2ccc(S(=O)(=O)NC(=O)N[C@H]3CC[C@H](C)CC3)cc2)C1=O [glimepiride],NAS compared with baseline values (in words),[1]; 48 weeks,improved significantly
same,mean ballooning scores (in words),[1]; 48 weeks,significantly reduced
same,histologic improvement from baseline to 48 weeks (in words),[1]; 48 weeks,the only histologic improvement from baseline to 48 weeks was a reduction in ballooning necrosis
(R)-2-[3-[[N-(benzoxazol-2-yl)-N-3-(4-methoxyphenoxy)propyl]aminomethyl]phenoxy]butyric acid [Pemafibrate],liver function as measured by ALT (in words),"adults with NAFLD [2]; Example 1 study, summary",significant improvements
same,"ALT, percent change from baseline",adults with NAFLD [2]; Week 24,−39.53%
same,"AST, percent change from baseline",adults with NAFLD [2]; Week 24,−9.21%
same,"ALT, mean difference",adults with NAFLD [2]; Week 24,−27.08%
same,"AST, mean difference",adults with NAFLD [2]; Week 24,−2.69%
same,"ALT, percent change from baseline",adults with NAFLD [2]; Week 48,−42.53%
same,"AST, percent change from baseline",adults with NAFLD [2]; Week 48,−9.75%
same,"ALT, mean difference",adults with NAFLD [2]; Week 48,−26.75%
same,"AST, mean difference",adults with NAFLD [2]; Week 48,−0.18%
same,"ALT, percent change from baseline",adults with NAFLD [2]; Week 72,−43.84%
same,"AST, percent change from baseline",adults with NAFLD [2]; Week 72,−9.61%
same,"ALT, mean difference",adults with NAFLD [2]; Week 72,−33.60%
same,"AST, mean difference",adults with NAFLD [2]; Week 72,−4.48%
same,HDL cholesterol (in words),"adults with NAFLD [3]; Example 1 study, summary",significant reductions
same,LDL cholesterol (in words),"adults with NAFLD [3]; Example 1 study, summary",significant reductions
same,total cholesterol (in words),"adults with NAFLD [3]; Example 1 study, summary",significant reductions
same,"HDL cholesterol, percent change from baseline",adults with NAFLD [3]; Week 24,−1.68%
same,"LDL cholesterol, percent change from baseline",adults with NAFLD [3]; Week 24,−14.72%
same,"Non-HDL cholesterol, percent change from baseline",adults with NAFLD [3]; Week 24,−13.82%
same,"Total cholesterol, percent change from baseline",adults with NAFLD [3]; Week 24,−11.19%
same,"Triglycerides, percent change from baseline",adults with NAFLD [3]; Week 24,−34.60%
same,"HDL cholesterol, mean difference",adults with NAFLD [3]; Week 24,−7.57%
same,"LDL cholesterol, mean difference",adults with NAFLD [3]; Week 24,−13.66%
same,"Non-HDL cholesterol, mean difference",adults with NAFLD [3]; Week 24,−12.82%
same,"Total cholesterol, mean difference",adults with NAFLD [3]; Week 24,−11.55%
same,"Triglycerides, mean difference",adults with NAFLD [3]; Week 24,−31.11%
same,"HDL cholesterol, percent change from baseline",adults with NAFLD [3]; Week 48,−6.40%
same,"LDL cholesterol, percent change from baseline",adults with NAFLD [3]; Week 48,−14.22%
same,"Non-HDL cholesterol, percent change from baseline",adults with NAFLD [3]; Week 48,−12.95%
same,"Total cholesterol, percent change from baseline",adults with NAFLD [3]; Week 48,−11.55%
same,"Triglycerides, percent change from baseline",adults with NAFLD [3]; Week 48,−27.11%
same,"HDL cholesterol, mean difference",adults with NAFLD [3]; Week 48,−10.24%
same,"LDL cholesterol, mean difference",adults with NAFLD [3]; Week 48,−16.37%
same,"Non-HDL cholesterol, mean difference",adults with NAFLD [3]; Week 48,−14.24%
same,"Total cholesterol, mean difference",adults with NAFLD [3]; Week 48,−13.19%
same,"Triglycerides, mean difference",adults with NAFLD [3]; Week 48,−25.77%
same,"HDL cholesterol, percent change from baseline",adults with NAFLD [3]; Week 72,−7.38%
same,"LDL cholesterol, percent change from baseline",adults with NAFLD [3]; Week 72,−12.48%
same,"Non-HDL cholesterol, percent change from baseline",adults with NAFLD [3]; Week 72,−11.92%
same,"Total cholesterol, percent change from baseline",adults with NAFLD [3]; Week 72,−11.12%
same,"Triglycerides, percent change from baseline",adults with NAFLD [3]; Week 72,−31.55%
same,"HDL cholesterol, mean difference",adults with NAFLD [3]; Week 72,−11.86%
same,"LDL cholesterol, mean difference",adults with NAFLD [3]; Week 72,−15.14%
same,"Non-HDL cholesterol, mean difference",adults with NAFLD [3]; Week 72,−15.77%
same,"Total cholesterol, mean difference",adults with NAFLD [3]; Week 72,−14.86%
same,"Triglycerides, mean difference",adults with NAFLD [3]; Week 72,−32.67%
same,liver stiffness when measured by MRE (in words),"adults with NAFLD [4]; Example 1 study, summary",significant improvements
same,"Liver stiffness by MRE, Responder",adults with NAFLD [4]; Week 24,19.0 (11) %
same,"Liver stiffness by MRE, percent change from baseline",adults with NAFLD [4]; Week 24,−5.03%
same,"Liver stiffness by MRE, mean difference",adults with NAFLD [4]; Week 24,−4.38%
same,"Liver stiffness by MRE, Responder",adults with NAFLD [4]; Week 48,37.9 (22) %
same,"Liver stiffness by MRE, percent change from baseline",adults with NAFLD [4]; Week 48,−9.01%
same,"Liver stiffness by MRE, mean difference",adults with NAFLD [4]; Week 48,−5.68%
same,"Liver stiffness by MRE, Responder",adults with NAFLD [4]; Week 72,25.9 (15) %
same,"Liver stiffness by MRE, percent change from baseline",adults with NAFLD [4]; Week 72,−7.27%
same,"Liver stiffness by MRE, mean difference",adults with NAFLD [4]; Week 72,−6.15%
same,"Liver fat content by MRI-PDFF, Responder",adults with NAFLD [5]; Week 24,20.7 (12) %
same,"Liver fat content by MRI-PDFF, percent change from baseline",adults with NAFLD [5]; Week 24,−5.28%
same,"Liver fat content by MRI-PDFF, mean difference",adults with NAFLD [5]; Week 24,−1.04%
same,"Liver fat content by MRI-PDFF, Responder",adults with NAFLD [5]; Week 48,10.3 (6) %
same,"Liver fat content by MRI-PDFF, percent change from baseline",adults with NAFLD [5]; Week 48,0.50%
same,"Liver fat content by MRI-PDFF, mean difference",adults with NAFLD [5]; Week 48,1.03%
same,"Liver fat content by MRI-PDFF, Responder",adults with NAFLD [5]; Week 72,22.4 (13) %
same,"Liver fat content by MRI-PDFF, percent change from baseline",adults with NAFLD [5]; Week 72,−4.88%
same,"Liver fat content by MRI-PDFF, mean difference",adults with NAFLD [5]; Week 72,−5.10%
same,"ballooning of hepatocytes, fat deposition, number of Kupffer cells (in words)",[6],suppresses ballooning of hepatocytes and fat deposition and reduces the number of Kupffer cells
same,ALT concentrations (in words),[7],much more modest decrease
same,LDL cholesterol (in words),[7],increase
same,total cholesterol (in words),[7],modest decrease
"CCc1ccc(Cc2ccc3c(c2)[C@]2(OC3)OC(CO)[C@@H](O)C(O)C2O)cc1 (stereo in doubt) [tofogliflozin, 6-((4-ethylphenyl)methyl)-3′,4′,5′,6′-tetrahydro-6′-(hydroxymethyl)spiro(isobenzofuran-1(3H),2′-(2H)pyran)-3′,4′,5′-triol]",BMI (in words),[8]; tofogliflozin 20 mg once daily,significant reduction
same,percentage of body fat (in words),[8]; tofogliflozin 20 mg once daily,significant reduction
same,mean body weight decrease,[8]; [10],4.8 kg
same,NAS compared with baseline values (in words),[1]; 48 weeks,improved significantly
same,fibrosis score (in words),[1]; 48 weeks,significantly reduced
same,lobular inflammation score (in words),[1]; 48 weeks,significantly reduced
same,mean ballooning scores (in words),[1]; 48 weeks,significantly reduced
same,mean steatosis scores (in words),[1]; 48 weeks,significantly reduced
same,percentage of steatosis (in words),[1]; 48 weeks,significantly reduced
same,ratio of the patients with improvement in ballooning necrosis,[1]; [11],55%
same,ratio of the patients with improvement in lobular inflammation,[1]; [11],50%
same,ratio of the patients with improvement in steatosis,[1]; [11],65%
same,fibrosis scores improved,"[1]; before and after treatment, 48 weeks, P=0.001",60%
same,histologic improvement from baseline to 48 weeks (in words),[1]; 48 weeks,significant histologic improvements from baseline to 48 weeks in all variables
same,FIB-4 index (in words),[9]; tofogliflozin 20 mg once daily,significantly reduced
same,alanine aminotransferase levels (in words),[9]; tofogliflozin 20 mg once daily,early and highly significant decrease
same,aspartate aminotransferase levels (in words),[9]; tofogliflozin 20 mg once daily,early and highly significant decrease
same,"gamma-glutamyl transferase, mean decrease",[9]; [10],23.8 IU/L
